*1 amine or outer side, *2 acyl side, *3 side chain or, on linkers, in order; H or OH if unused. Where a SMILES comes first, the peptide text is derived from it. Bridges are numbered along the chain shown (N, C = ends). [ ]: non-standard residue; d: D form. βAsp = O=C(O)[C@H](CC(=O)[*:2])N[*:1]
Legend:
MDA-MB-231 cells [1] = experiment: Cell cycle, BrdU/PI flow cytometry; assay type: cell-based, human; conditions: MDA-MB-231, 24 h, CDAK 212 µg/ml, CRLK 200 µg/ml
Procedure: (§1) After being incubated with CDAK (190 µg/ml and 212 µg/ml), CRLK (200 µg/ml) and control (PBS) for 24 h, 20 µM BrdU (Sigma-Aldrich, St. Louis, MO, USA) was added to the media for 30 min. Cells were harvested and fixed in iced-cold 75% ethanol for 24 h. Then, the cells were treated with 4N HCL, neutralized by 0.1 M borax, and washed with PBS containing 0.05% bovine serum albumin (BSA). The cells were incubated sequentially with anti-BrdU antibody (santa cruz biotechnology, California, US) and FITC-conjugate anti-mouse secondary antibody in the presence of 0.5%BSA and 0.5%Tween-20. Cells were added PI (50 µg/ml) and RNase A (50 µg/ml) for 20 minutes and analyzed by flow cytometry. Select a forward scatter (FSC) versus side scatter (SSC) window defined single cells and exclude cell doublets.

MCF-7 cells [2] = experiment: Cell cycle, BrdU/PI flow cytometry; assay type: cell-based, human; conditions: MCF-7, 24 h, CDAK 190 µg/ml, CRLK 200 µg/ml
Procedure: as §1

lung and liver = system: lung and liver; design: species or system BALB/cnu-nu athymic nude mice; conditions: mouse, in vivo, iv, 4 mg/kg
From the text: Terminal deoxynucleotidyl teansferase-mediated dUTP nick end-labeling (TUNEL) were examined in the lung and liver using TdT In Situ Apoptosis Detection Kit (Trevigen, Gaithersburg, Maryland, USA) following the manufacturer's protocols. Apoptosis cells were identified as having brown nuclei under a light microscope. The number of apoptosis cells was counted in five random fields (×400) in a blinded manner.

MDA-MB-231 xenograft [3] = experiment: MDA-MB-231 xenograft growth in athymic nude mice; assay type: in vivo, BALB/cnu-nu athymic nude mice; conditions: 4 mg/kg intravenously, three times a week for three weeks, five mice per group
Procedure: The experiment was approved by the Animal Care and Use Committee of Xi'an Jiaotong University. MDA-MB-231 cells (2×10^6) were injected subcutaneously into the right flank of 6- to 9-week-old female BALB/cnu-nu athymic nude mice (Shanghai Silaike Laboratory Animal Co., Ltd, Shanghai, China) weighing 18 to 20 g. When the tumor reached 60 mm^3 in size, the mice were randomized into three groups: (1) CDAK (4 mg/kg); (2) CRLK (4 mg/kg); and (3) saline (control). They were then injected intravenously (50 µL/injection) three times a week for three weeks. Tumor volume was measured three times a week using calipers to calculate the tumor size using the following formula: length×width^2×0.5. All values are expressed as the mean ± SD.
Tumor-bearing athymic nude mice were sacrificed and the weights of the tumors were recorded. The tumor tissue, liver as well as lung tissues of mice were paraffin-embedded. The tumor paraffin sections were incubated for 10 minutes with 3% H2O2 deionized water to eliminate the endogenous peroxidase activity, washed in PBS three times for five minutes, 5% goat serum was added for 15 minutes, then incubated with mouse monoclonal CD105 antibody (Abcam, Cambridge, UK) at 4°C overnight and washed with PBS three times for five minutes. […]

MDA-MB-231 cells [4] = experiment: DNA ladder (DNA fragmentation) assay; assay type: cell-based, human; conditions: MDA-MB-231, 24 h; CDAK 212 µg/ml, CRLK 200 µg/ml; 1% agarose gel
Procedure: (§2) For DNA fragmentation analysis, DAN of cells which were treated with CDAK (190 µg/ml and 212 µg/ml), CRLK (200 µg/ml) and control (PBS) for 24 h were extracted using a selective apoptotic DNA ladder extraction KIT (Biomed Company, Beijing, China) and were analyzed using 1% agarose gels. DNA was visualized with ethidium bromide staining.

MCF-7 cells [5] = experiment: DNA ladder (DNA fragmentation) assay; assay type: cell-based, human; conditions: MCF-7, 24 h; CDAK 190 µg/ml, CRLK 200 µg/ml; 1% agarose gel
Procedure: as §2

MDA-MB-231 xenograft [6] = experiment: Tumor angiogenesis, anti-CD105 immunohistochemistry (microvessel density); assay type: in vivo, BALB/cnu-nu athymic nude mice; conditions: 4 mg/kg intravenously, tumor sections, P<0.05
Procedure: Tumor-bearing athymic nude mice were sacrificed and the weights of the tumors were recorded. The tumor tissue, liver as well as lung tissues of mice were paraffin-embedded. The tumor paraffin sections were incubated for 10 minutes with 3% H2O2 deionized water to eliminate the endogenous peroxidase activity, washed in PBS three times for five minutes, 5% goat serum was added for 15 minutes, then incubated with mouse monoclonal CD105 antibody (Abcam, Cambridge, UK) at 4°C overnight and washed with PBS three times for five minutes. The biotin-labeled goat anti-mouse IgG were incubated with sections at 37°C for 15 minutes, and then the sections were washed by PBS three times for five minutes. Horseradish peroxidase-avidin enzyme working solution was added at 37°C for 15 minutes and washed with PBS. DAB was added to develop the color, and the nuclei were counterstained mildly with hematoxylin. The liver and lung paraffin sections were stained with hemaetoxylin and eosin (HE) and were independently evluated by two pathologists.

MDA-MB-231 cells [7] = assay type: cell-based, human
Procedure: (§3) The MCF-7 and MDA-MB-231 cells were cultured in 96-well plates at a density of 5×10^4 cells/well. CDAK and CRLK were added to different wells, ranging from 10 µg/ml to 200 µg/ml, respectively. After 24 h, 48 h and 72 h, 3-[4,5-dimethylthiazol- 2-yl]-2,5-diphenyltetrazolium bromide (MTT; Sigma-Aldrich, St. Louis, MO, USA) was added to each well and incubated for 4 h. The MTT was dissolved in 200 µL of Dimethyl sulfoxide (DMSO). Absorbance was detected using a microplate reader at 490 nm. Wells without peptides were used to control cell viability, representing 100% cell survival. Wells without cells were used for the blank of the spectrophotometer.

MCF-7 cells [8] = assay type: cell-based, human
Procedure: as §3

HFF = conditions: MTT, 24 h
HUVEC = conditions: MTT, 24 h

| Molecule | cells in S phase (MDA-MB-231 cells [1]) [%] | cells in S phase (MCF-7 cells [2]) [%] | apoptosis rate (%) in liver (lung and liver) | apoptosis rate (%) in lung (lung and liver) [%] | tumor volume compared with control group (MDA-MB-231 xenograft [3]) | formation of DNA nucleosome ladder (MDA-MB-231 cells [4]) | formation of DNA nucleosome ladder (MCF-7 cells [5]) | inhibition of angiogenesis (microvessel density, anti-CD105) (MDA-MB-231 xenograft [6]) | concentration with significant cytotoxicity (MDA-MB-231 cells [7]) [µg/mL] | IC50 (peptide concentration that induces 50% inhibition of cell growth) (MDA-MB-231 cells [7]; MDA-MB-231, MTT, 24 h) [mg/L] | concentration with significant cytotoxicity (MCF-7 cells [8]) [µg/mL] | IC50 (peptide concentration that induces 50% inhibition of cell growth) (MCF-7 cells [8]; MCF-7, MTT, 24 h) [mg/L] | IC50 (peptide concentration that induces 50% inhibition of cell growth) (HFF) [mg/L] | IC50 (peptide concentration that induces 50% inhibition of cell growth) (HUVEC) [mg/L] |
| --- | --- | --- | --- | --- | --- | --- | --- | --- | --- | --- | --- | --- | --- | --- |
| CRDGCALKAIAKLKLKKLILALK [CRLK] | 23.3 | 19.7 | 0.35%±0.23 | 0.17±0.01 | did not reach a statistically significance | no DNA ladder was detected | no DNA ladder was detected | not | – | – | – | – | – | – |
| CC[C@H](C)[C@H](NC(=O)[C@H](CC(C)C)NC(=O)[C@H](CC(C)C)NC(=O)[C@@H]1CSSC[C@H](N)C(=O)N[C@H](C(=O)O)CC(=O)NCC(=O)N[C@@H](CCCNC(=N)N)C(=O)N1)C(=O)N[C@H](C(=O)N[C@@H](CCCCN)C(=O)N[C@@H](CC(C)C)C(=O)N[C@@H](C)C(=O)N[C@@H](CCCCN)C(=O)N[C@@H](CC(C)C)C(=O)N[C@@H](C)C(=O)N[C@@H](CCCCN)C(=O)N[C@@H](CCCCN)C(=O)N[C@@H](CC(C)C)C(=O)N[C@@H](C)C(=O)N[C@@H](CCCCN)C(=O)N[C@@H](CC(C)C)C(=O)N[C@@H](C)C(=O)N[C@@H](CCCCN)C(=O)O)[C@@H](C)CC [CDAK] (H-C[βAsp]GRCLLIIKLAKLAKKLAKLAK-OH; disulfide 1-5) | – | – | 0.38%±0.14 | 0.16±0.02 | – | – | – | – | > 40 | 212 | > 40 | 190 | 912 | 861 |

From paper PMC3543424, “Antitumor Activity of Antimicrobial Peptides Containing CisoDGRC in CD13 Negative Breast Cancer Cells” (PLoS ONE, 2013)
